Source: US8440718B2, “Modulation of inflammation related to columnar epithelia” (The Brigham and Women's Hospital, Inc., priority 1991, dated 2013)
Marks after values point to notes of the source that are not given here.

How the values were obtained:
[1] = tested on: human PMN migration across inverted T84 epithelial monolayers; assay: PMN transepithelial migration assay, basolateral-to-apical direction (inverted monolayers), fMLP gradient, myeloperoxidase readout; format: cell-based; details: for inhibition of PMN migration, basolateral-to-apical (total MPO activity): 10 nM, 15 min pre-incubation 37°C, 1 μM fMLP, 120 min
Procedure: Cell culture Approximately 350 epithelial monolayers were used for these studies. T84 intestinal epithelial cells (passages 70-95) were grown and maintained as confluent monolayers on collagen coated permeable support. Monolayers were grown on 0.33 cm^2 ring-supported polycarbonate filters (Costar Corp., Cambridge, Mass.) and utilized 6-14 days after plating as described in Example 2. Transepithelial resistance to passive ion flow was measured as described in Parkos C. A., et al. (1991). J. Clin. Invest. 88: 1605-1612); and Parkos C. A., et al. (1992). J. Cell. Biol. 117: 757-764). Inverted monolayers used to study migration of PMN in the basolateral-to-apical direction were constructed as described in Parkos C. A., et al. (1991). J. Clin. Invest. 88:1605-1612).
Migration assay: The PMN transepithelial migration assay has been detailed in Nash S., et al. (1987). J. Clin. Invest. 80: 1104-1113; Nash S., et al. (1991). J. Clin. Invest 87: 1474-1477); Parkos C. A., et al. (1991). J. Clin. Invest. 88: 1605-1612); and Parkos C. A., et al. (1992). J. Cell. Biol. 117: 757-764. Briefly, human PMN were isolated from normal human volunteers and suspended in modified HBSS (without Ca^2+ and Mg^2+, with 10 mM Hepes, pH 7.4, Sigma) at a concentration of 5×10^7/ml. Prior to addition of PMN, T84 monolayers were extensively rinsed in HBSS to remove residual serum components. Migration assays were performed by the addition of PMN (40 μl) to HBSS ([…]) in the upper chambers after chemoattractant (1 μM fMLP in HBSS) was added to the opposing (lower) chambers. Unless otherwise indicated, PMN were not washed free of LXA4 prior to addition to monolayers, and therefore, a five-fold dilution of lipoxin was present during the migration assay. For apical-to-basolateral migration experiments, PMN (2×10^6) were added at time 0. Migration in the basolateral-to-apical direction, while qualitatively similar, is substantially more efficient than in the apical-to-basolateral direction. (Parkos C. A., et al. (1991). J. Clin. Invest. 88: 1605-1612). Therefore, 5-fold fewer PMN (4×10^5) were added when migration proceeded in the basolateral-to-apical direction in order that baseline migration signals be approximately equivalent in both directions. (Parkos C. A., et al. (1991). J. Clin. Invest. 88: 1605-1612). Migration was allowed to proceed for 120 minutes, unless otherwise noted. All PMN transepithelial migration experiments were performed in a 37° C. room to ensure that epithelial monolayers, solutions, plasticware, etc., were maintained at uniform 37° C. temperature.
Migration was quantitated by assaying for the PMN azurophilic granule marker myeloperoxidase (MPO) as described previously (Parkos C. A., et al. (1991). J. Clin. Invest 88: 1605-1612). Following each migration assay, non-adherent PMN were extensively washed from the surface of the monolayer and PMN cell equivalents (PMN CE), estimated from a standard curve, were assessed as the number of PMN's associated with the monolayer, the number which had completely traversed the monolayer (ie. across the monolayer into the reservoir bath), as well as the total number of transmigrating PMN (the sum of monolayer and reservoir-associated PMN).
Data Presentation: Individual experiments were performed using large numbers of uniform groups of monolayers and PMN from individual blood donors on individual days. PMN isolation was restricted to five different blood donors (repetitive donations) over the course of these studies. Myeloperoxidase assay data were compared by two-factor analysis of variance (ANOVA) or by comparison of means using Student's t-Test PMN migration results are represented as PMN CE derived from a daily standard PMN dilution curve. Monolayer-associated PMN are represented as the number of PMN CE per monolayer and reservoir-associated PMN (ie. PMN which had completely traversed the monolayer into the lower chamber) are represented as the number of PMN CE/ml (total volume of 1 ml). […]

[2] = tested on: human PMN migration across T84 epithelial monolayers; assay: Effect of inhibitors on baseline and LXA4-elicited PMN transepithelial migration, apical-to-basolateral; format: cell-based
[3] = tested on: neutrophil transmigration across T84 monolayers; assay: Neutrophil migration across inverted T84 monolayers (basolateral to apical), myeloperoxidase assay, Example 2; format: cell-based, human; details: FMLP 10^−6 M, PMN 6 × 10^6/cm^2
Source text: (§1) Preparation of monolayers: Normal or inverted monolayers can be constructed for a physiological microassay using the commercially available insert system (Costar inserts, 0.33 cm^2, 5 μm polycarbonate filters). The larger pore size is crucial for allowing neutrophils to penetrate the filter. Collagen 1 must coat the filters to allow attachment of T84 cells. Original descriptions of the collagen coat involved procedures in which the collagen was chemically crosslinked Dharmsathaphorn, K. et al; Meth. Enzymol. 192:354-389; 1990. Dharmsathaphom, K. et al; Am. J. Physiol. 246 (Gastrointest. Liver Physiol. 9):G204-G208; 1984.
Inverted monolayers can also be grown using this technique. For this 0.8 mm thick lexan rings having the same dimension of the base of Costar inserts are machined, deburred, cleaned by boiling with a trace of detergent and subsequently exhaustively washed, and attached to the underside of the insert using General Electric RTV Silicone glue (this underside ring is necessary for a peripheral electrical seal). After drying overnight, the inserts are sterilized by submersion in 70% ethanol (4-hr overnight), inverted onto a sterile petri dish in a hood, and allowed to dry. Collagen and cells are added to the filter (underside now facing up) exactly as with unmodified inserts and cells are allowed to attach for 4 hours before righting the inserts into the 24 well holding plates. Subsequent treatment of the monolayers is identical to that described above.
(§2) Isolation of neutrophils: Neutrophils are isolated from whole blood using a gelatin-sedimentation technique. Briefly, whole blood, anticoagulated with citrate/dextrose, is centrifuged at 300×g for 20 minutes (20° C.). The plasma and buffy coat are carefully removed using a curved, siliconized glass pipette which is attached to a vacuum trap. […]
Myeloperoxidase assay of neutrophil transepithelial migration: PMN contents of monolayers and lower chambers can be quantitated by assaying the PMN-specific azurophil granule marker, myeloperoxidase (MPO). […]

[4] = tested on: neutrophil transmigration across T84 monolayers; assay: Neutrophil transmigration across T84 monolayers by resistance or myeloperoxidase assay, Example 2; format: cell-based, human; details: fMLP 10^−6 and 10^−7 M
Source text: as §1
as §2, with “trap. Care must be taken not to aspirate the interface between the buffy coat and RBC since this is where PMN reside.” for “trap.”
For measurements, bridges are positioned as described, and the spontaneous transepithelial electrical potential and the instantaneous potential generated by passing 25 μA of current are measured. […] Using these values and Ohm's Law, tissue resistance and transepithelial current are then calculated. […]

CCCCCC(O)C=CC=CC=CC=CC(O)C(O)CCCC(=O)O (stereo not drawn) [11-trans-LXA4]
inhibition of PMN migration, basolateral-to-apical (total MPO activity) [1]: 16±6%

CC(C)c1ccc2c(c1)c(SC(C)(C)C)c(CC(C)(C)C(=O)O)n2Cc1ccc(Cl)cc1 [MK886]
effect on LXA4-elicited increase in PMN transepithelial migration ([2]; MK886 10 ng/ml): did not effect | effect on baseline fMLP driven PMN migration ([2]; MK886 10 ng/ml): did not alter

N-formyl-Met-Leu-Phe [fMLP]
Neutrophil Cell Equivalents In Monolayers [3]: 5.47 × 10^4 | Neutrophil Cell Equivalents In Opposite Reservoir [3]: 85.30^# × 10^4 | Neutrophil Cell Equivalents Total [3]: 90.77^# × 10^4 | stimulation of neutrophil transmigration [4]: effective in stimulating transmigration

pertussis toxin
inhibition of control, LXA4-elicited migration ([2]; PMN pre-exposed to pertussis toxin 2 μg/ml, then LXA4): 87±4% | inhibition of baseline fMLP driven migration compared to vehicle control ([2]; pertussis toxin 2 μg/ml): 91±8%

CC1CNCCN1S(=O)(=O)c1cccc2cnccc12 (stereo not shown) [Compound H7]
inhibition of PMN transepithelial migration compared to vehicle control ([2]; H7 100 μM final concentration): 91±4%

CCCCC[C@H](O)[C@H](O)/C=C/C=C/C=C\C=C\[C@@H](O)CCCC(=O)O (relative stereo) [LXB4, (5S, 14R, 15S)-trihydroxy-6,10,12-trans-8-cis-eicosatetraenoic acid]
effect on PMN migration in basolateral-to-apical direction [1]: no effect | inhibition of PMN migration, basolateral-to-apical (total MPO activity) [1]: 7±4%

COc1ccc2c(c1)c(CC(=O)O)c(C)n2C(=O)c1ccc(Cl)cc1 [indomethacin]
baseline PMN migration, % vehicle control ([2]; indomethacin 50 μM, 15 min, 37°C, fMLP gradient): 109±13 % vehicle control
